The text below walks through data of ChEMBL document CHEMBL5131408, “Novel O-acylated amidoximes and substituted 1,2,4-oxadiazoles synthesised from (+)-ketopinic acid possessing potent virus-inhibiting activity against phylogenetically distinct influenza A viruses” (Bioorg Med Chem Lett, 2022).

In data set [1] the test system is Influenza A virus. In words: Antiviral activity against Influenza A virus A/Puerto Rico/8/34 (H1N1) infected in MDCK cells assessed as inhibition of viral replication. Type of data set: functional, organism-based.
Data set [2] can be described thus: Cytotoxicity against MDCK cells infected with Influenza A virus A/Puerto Rico/8/34 (H1N1) assessed as reduction in cell viability. The class given is toxicity, cell-based, Canis lupus familiaris. The note with it: dog.
A short description of data set [3]: Selectivity index, ratio of CC50 for cytotoxicity against MDCK cells infected with Influenza A virus A/Puerto Rico/8/34 (H1N1) to IC50 for antiviral activity against Influenza A virus A/Puerto Rico/8/34 (H1N1) infected in MDCK cells. Type of data set: toxicity, cell-based. The note with it: dog; read-out: Ratio CC50/IC50.
Data set [4] relates to Influenza A virus. Kind of data set: Antiviral activity against Influenza A virus A/Anhui/1/2013 (H7N9) infected in MDCK cells assessed as inhibition of viral replication. The class given is functional, organism-based.
Data set [5] can be described thus: Cytotoxicity against MDCK cells infected with Influenza A virus A/Anhui/1/2013 (H7N9) assessed as reduction in cell viability. The class given is toxicity, cell-based, Canis lupus familiaris. Conditions: dog.
Data set [6] in a line: Selectivity index, ratio of CC50 for cytotoxicity against MDCK cells infected with Influenza A virus A/Anhui/1/2013 (H7N9) to IC50 for antiviral activity against Influenza A virus A/Anhui/1/2013 (H7N9) infected in MDCK cells. The note with it: dog; read-out: Ratio CC50/IC50. The class given is toxicity, cell-based.
Data set [7] concerns Influenza A virus. In words: Anti-membranotropic activity in Influenza A virus A/Puerto Rico/8/34 (H1N1) infected in chicken erythrocytes assessed as inhibition of hemagglutinin-driven membrane disruption incubated for 30 mins followed by infection in chicken erythrocytes. The note with it: Erythrocyte, DDE = dose-dependent effect. The class given is functional, organism-based.

Each structure is given as a SMILES string.

Regarding `CC1(C)[C@@H]2CC[C@@]1(c1nc(-c3cccnc3)no1)C(=O)C2`, the IC50 was 13 µM in the data set with Influenza A virus [1] and more than 1060 µM in the data set on Influenza A virus [4]. In addition, the figures for the CC50 in data set [2] and in data set [5] were more than 1060 µM and 1060 µM, respectively. For the same molecule, the selectivity ratio in data set [3] was more than 79; in data set [6] it was 1. Moreover, the Activity entry in the data set with Influenza A virus [7] is “Dde”.
`CC1(C)[C@@H]2CC[C@@]1(c1nc(Cc3cccc(F)c3)no1)C(=O)C2`: the results for the IC50 in the data set on Influenza A virus [1] and in the data set on Influenza A virus [4] were 7 µM and more than 105 µM, respectively. Also, the figures for the CC50 in data set [2] and in data set [5] were 411 µM and 344 µM, respectively. Further, the values for the selectivity ratio in data set [3] and in data set [6] were 56 and 3, respectively. Moreover, in the data set with Influenza A virus [7], the Activity entry is “Dde”.

By IC50 is commonly meant the midpoint of a concentration-inhibition curve. Usually CC50 stands for the concentration that lowers cell viability or growth by half.
